Laboratory results: US20220233624A9, “ANTI-CANCER AND ANTI-PROLIFERATIVE COMPOSITIONS, AND METHODS FOR THEIR USE IN TREATING CANCER” (Natreon, Inc., priority 2020, published 2022)
Where “and” joins values, the source holds several entries; their conditions need not be identical. Equal entries are not always repeated. Where two headings read alike, the source gives them in different places.

How the values were obtained:
[1] = test system: Glioma PDCs (Glioblastoma Grade IV); assay: Anti-proliferation assay (CellTiterGlo, 72 h) on glioma PDCs; format: cell-based, human
Description: (§1) The outermost rows/columns of the plates were filled with PBS (pH 7.4) to avoid an edge-effect and were considered as blanks. Standardized aqueous extracts identified in Table 2 were prepared in main stock solutions by dissolving 1 mg of extract in 1 ml PBS (phosphate-buffered saline, pH 7.4). […] The plate was incubated in a CO2 incubator for 0/N incubation for 24 hours. […] Once extracts were added to incubated cells and mixed gently, the plate was given a brief spin and incubated in the CO2 incubator for 72 hours. The plate was removed from the incubator and 10 ul of detection reagent (CellTiterGlo®; Promega Corporation, Wisconsin, USA) added to each well of the 384 well plate. […] The assay described above is a two-dimensional (2D) assay.

[2] = test system: Breast Cancer PDCs, ER/PR+ Her2 equivocal (HR+); assay: Anti-proliferation assay on breast cancer HR+ PDCs; format: cell-based, human; details: drug alone @ 10 uM; for inhibition at 10 µM: Homo sapiens
Description: as §1

[3] = test system: Breast Cancer PDCs, ER/PR− Her2+ (Her2+); assay: Anti-proliferation assay on breast cancer Her2+ PDCs; format: cell-based, human; details: drug alone @ 10 uM; for inhibition at 10 µM: Homo sapiens
Description: as §1

[4] = test system: Breast Cancer PDCs, Triple negative (TN), SB 36344; assay: Anti-proliferation assay on breast cancer TN PDCs; format: cell-based, human; details: drug alone @ 10 uM; for inhibition at 10 µM: Homo sapiens
Description: as §1

[5] = test system: AML (Acute myeloid leukemia) PDCs, M4 subtype (SB 33866); assay: Anti-proliferation assay on AML PDCs; format: cell-based, human; details: for inhibition at 10 µM: assay drug control @ 10 uM; for Inhibitory Concentration IC75 / Inhibitory Concentration IC25 / IC50: AML cells (M4); for Inhibitory Concentration IC25: calculated using IC50 and hill slope; for IC50: read-out: Inhibitory Concentration IC50
Description: Anti-proliferation assays were performed on 6 types of primary patient-derived cancer cells (PDCs) from 6 different human donors, as described in Table 1:
Tests were performed in 384-well plates (24×16), using 1250 to 10,000 cells/well depending on the size and proliferation rate of different PDCs, in 30 ul of culture media (DMEM/F12 with serum and growth factors), with control wells set aside on each plate for media alone (4 wells), untreated PDCs (4 wells), and for PDCs treated with 10 ul of a known anti-cancer drug as a control. […] The outermost rows/columns of the plates were filled with PBS (pH 7.4) to avoid an edge-effect and were considered as blanks.
Standardized aqueous extracts identified in Table 2 were prepared in main stock solutions by dissolving 1 mg of extract in 1 ml PBS (phosphate-buffered saline, pH 7.4).
Anti-Proliferation Assay Protocol: 30 ul of cells were plated at the density of 1250 to 10,000 cells/well. The plate was incubated in a CO2 incubator for 0/N incubation for 24 hours. […] Final assay concentrations of made from stock solutions of standardized aqueous extracts identified in Table 2 were 100 ug/ml, 30 ug/ml, and 10 ug/ml. Since 10 ul extract was added to 30 ul of cell suspension, it diluted 4 times, so to maintain the final assay concentrations, 4× concentrated extract solutions (400 ug/ml, 120 ug/ml, and 40 ug/mo) were prepared from main stock (1 mg/ml) and added to the plate. In all experiments, 10 ul of 4 times concentrated stock (4×) was added to wells containing 30 ul of cell suspension to achieve final assay concentrations at 1X.
Once extracts were added to incubated cells and mixed gently, the plate was given a brief spin and incubated in the CO2 incubator for 72 hours. The plate was removed from the incubator and 10 ul of detection reagent (CellTiterGlo®; Promega Corporation, Wisconsin, USA) added to each well of the 384 well plate. The plate was incubated (10 min) and luminescence counts measured, with luminescence produced proportional to the number of viable (living, metabolically active) cells for each assay. The assay described above is a two-dimensional (2D) assay.
In this Example, AML drugs were used as disease specific controls.
As discussed above in Example I, 6 extracts (Ayuflex®, Capros®, Phyto-BGS®, PrimaVie®, Sensoril®, and Ayuric®) were tested on AML PDC-SB cells (33866, M-4 type, subject) at 3 concentrations: 100 ug/ml, 30 ug/ml, and 10 ug/ml.

[6] = test system: Glioma SB 32833 Glioblastoma Grade IV patient derived cells; assay: Anti-proliferation assay on glioma PDCs SB 32833; format: cell-based; details: Homo sapiens; for inhibition at 10 µM: drug @ 10 uM; for inhibition at 100 µM: Temozolomide @ 100 uM
Description: The anti-cancer activity of AyuFlex®, Capros®, and Ayuric® was further tested on two other glioma PDCs taken from 2-3 different subjects (SB 6129, SB 32833 (person)). […] Also, the anti-cancer activity of AyuFlex®, Capros®, and Ayuric® was further tested on existing glioblastoma cell line U87 MG, to allow comparisons with other compositions known in the art. AyuFlex®, Capros®, and/or Ayuric® were incubated with the new PDC lines and the U87 MG cell line for 72 hours, as described in Example I above.
Table 68 relates to FIG. 31, a graph showing the efficacy of AyuFlex®, Capros®, and/or Ayuric® on Glioma SB 32833 Glioblastoma Grade IV patient derived cells, in a combination study.

AML cell line HL60 = assay: Anti-proliferation assay on HL60 AML cells; format: cell-based; details: for IC25 / IC75: potential dosing for further experiments
Description: 2500 cells were plated per well in 384 well plates. […] CellTiter Glo was used as a detection reagent. Extracts were incubated with the AML HL60 cells for 72 hours.

[7] = read-out: % Inhibition, single replicates

## CS(=O)(=O)N1CCN(Cc2cc3nc(-c4cccc5[nH]ncc45)nc(N4CCOCC4)c3s2)CC1 [GDC-0941, pictilisib]
[1]; Homo sapiens, drug alone @ 10 uM, read-out: % Inhibition Avg
  inhibition at 10 µM: 81%
[1]; Homo sapiens, drug alone @ 10 uM, read-out: % Inhibition, single replicates
  inhibition at 10 µM: 83%
[1]; drug alone @ 10 uM, 10 µM
  % Inhibition, single replicates: 79%
[2]; read-out: % Inhibition Avg
  inhibition at 10 µM: 68%
[2]; [7]
  inhibition at 10 µM: 70%
[2]; 10 µM
  % Inhibition, single replicates: 67%
[3]; read-out: % Inhibition Avg
  inhibition at 10 µM: 70%
[3]; [7]
  inhibition at 10 µM: 71%
[3]; 10 µM
  % Inhibition, single replicates: 69%
[4]; read-out: % Inhibition Avg
  inhibition at 10 µM: 83%
[4]; [7]
  inhibition at 10 µM: 84%
[4]; 10 µM
  % Inhibition, single replicates: 82%
[5]; Homo sapiens, read-out: % Inhibition Avg
  inhibition at 10 µM: 59%
[5]; Homo sapiens, read-out: % Inhibition n1
  inhibition at 10 µM: 56%
[5]; Homo sapiens, read-out: % Inhibition n2
  inhibition at 10 µM: 63%
[6]; read-out: % Inhibition Avg
  inhibition at 10 µM: 100%
[6]; read-out: % Inhibition n1
  inhibition at 10 µM: 100%
[6]; read-out: % Inhibition n2
  inhibition at 10 µM: 100%
[6]; read-out: % Inhibition n3
  inhibition at 10 µM: 100%

## Cn1nnc2c(C(N)=O)ncn2c1=O [Temozolomide, temozolomide]
[1]; Homo sapiens, Temozolomide alone @ 30 uM
  inhibition at 30 µM: 24%
[1]; Homo sapiens, Temozolomide alone @ 100 uM, read-out: % Inhibition Avg
  inhibition at 100 µM: 32%
[1]; Homo sapiens, Temozolomide alone @ 100 uM, read-out: % Inhibition, single replicates
  inhibition at 100 µM: 41%
[1]; Homo sapiens, Temozolomide alone @ 300 uM, read-out: % Inhibition Avg
  inhibition at 300 µM: 19%
[1]; Homo sapiens, Temozolomide alone @ 300 uM, read-out: % Inhibition, single replicates
  inhibition at 300 µM: 28%
[1]; Temozolomide alone @ 30 uM, 30 µM
  % Inhibition, single replicates: 16% and 15%
[1]; Temozolomide alone @ 100 uM, 100 µM
  % Inhibition, single replicates: 27% and 29%
[1]; Temozolomide alone @ 300 uM, 300 µM
  % Inhibition, single replicates: 14% and 15%
[6]; read-out: % Inhibition Avg
  inhibition at 100 µM: 27%
[6]; read-out: % Inhibition n1
  inhibition at 100 µM: 41%
[6]; read-out: % Inhibition n2
  inhibition at 100 µM: 21%
[6]; read-out: % Inhibition n3
  inhibition at 100 µM: 18%

## Nc1ccn([C@@H]2O[C@H](CO)[C@@H](O)[C@@H]2O)c(=O)n1 [Cytarabine, cytarabine]
[5]
  Inhibitory Concentration IC75: 0.47 µM
  Inhibitory Concentration IC25: 0.023 µM
[5]; Homo sapiens, drug alone 3 uM, read-out: inhibition of AML proliferation
  inhibition at 3 µM: 99%
[5]; Homo sapiens, drug alone @ 3 uM, read-out: % Inhibition Avg
  inhibition at 3 µM: 99%
[5]; Homo sapiens, drug alone @ 3 uM, read-out: % Inhibition n1
  inhibition at 3 µM: 99%
[5]; Homo sapiens, drug alone @ 3 uM, read-out: % Inhibition n2
  inhibition at 3 µM: 99%
[5]; Homo sapiens, drug alone @ 3 uM, read-out: % Inhibition n3
  inhibition at 3 µM: 99%
[5]; Homo sapiens
  IC50: 0.104 µM
AML cell line HL60; HL60 AML cells
  IC25: 0.298 µM
  IC75: 1.08 µM
AML cell line HL60; Homo sapiens, HL-60
  inhibition at 3 µM: ≥ 90%
AML cell line HL60; Homo sapiens, HL-60, dose-response curve, FIG. 35
  IC50: 0.567 µM

## arsenic trioxide
[5]
  Inhibitory Concentration IC75: 6.45 µM
  Inhibitory Concentration IC25: 1.38 µM
  IC50: 2.99 µM
[5]; drug alone 3 uM
  inhibition of AML proliferation: 97%
[5]; drug alone @ 3 uM
  % Inhibition Avg: 97%
  % Inhibition n1: 97%
  % Inhibition n2: 97%
  % Inhibition n3: 97%
AML cell line HL60; HL60 AML cells
  IC50: 2.43 µM
  IC25: 1.72 µM
  IC75: 3.01 µM
AML cell line HL60; dose-response curve, FIG. 35
  IC50: 2.3 µM
